Columns and labels:
AMBEL (Ragweed, Common) = experiment: Postemergence herbicidal evaluation; format: in vivo, Ambrosia artemisifolia; conditions: postemergence
Summary of the method: (§1)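 Two-week-old seedlings sprayed with compound in 50/50 acetone/water plus 0.5% TWEEN 20, at about 0.0156 to 0.500 kg/ha, nozzle at 40 psi. Kept in greenhouse; rated visually 4-5 weeks after treatment on a 0-9 scale versus control, repeat tests averaged.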

CASOB (Sicklepod) [1] = experiment: Postemergence herbicidal evaluation; format: in vivo, Cassia obtusifolia; conditions: postemergence
Summary of the method: as §1

[2] = tested on: CHEAL (Lambsquarters, Common); experiment: Postemergence herbicidal evaluation; format: in vivo, Chenopodium album; conditions: postemergence
Summary of the method: as §1

GALAP (Galium) [3] = experiment: Postemergence herbicidal evaluation; format: in vivo, Galium aparine; conditions: postemergence
Summary of the method: as §1

ECHCG (Barnyardgrass) = experiment: Postemergence herbicidal evaluation; format: in vivo, Echinochloa crus-galli; conditions: postemergence
Summary of the method: as §1

SETVI (Foxtail, Green) = experiment: Postemergence herbicidal evaluation; format: in vivo, Setaria viridis; conditions: postemergence
Summary of the method: as §1

[4] = tested on: GLXMAW (Soybean, Williams); experiment: Postemergence herbicidal evaluation; format: in vivo, Glycine max, (L.) Merr. cv Williams; conditions: postemergence
Summary of the method: as §1

ORYSAT (Rice, Tebonnet) = experiment: Postemergence herbicidal evaluation; format: in vivo, Oryza sativa, (L.) Tebonnet; conditions: postemergence
Summary of the method: as §1

CASOB (Sicklepod) [5] = experiment: Preemergence herbicidal evaluation; format: in vivo, Cassia obtusifolia; conditions: preemergence, rated 4-5 weeks after treatment, 0-9 scale
Summary of the method: (§2)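 Rating at 4–5 wk post-spray on a 0–9 visual scale vs control. Application: aqueous acetone, ~0.0156–0.500 kg/ha, to soil surface after seeding, preemergence.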

GALAP (Galium) [6] = experiment: Preemergence herbicidal evaluation; format: in vivo, Galium aparine; conditions: preemergence, rated 4-5 weeks after treatment, 0-9 scale
Summary of the method: as §2

ZEAMX (Corn, Field) = experiment: Preemergence herbicidal evaluation; format: in vivo, Zea mays; conditions: preemergence, rated 4-5 weeks after treatment, 0-9 scale
Summary of the method: as §2

CYPIR (Rice Flatsedge) = experiment: Preemergence weed control under flooded paddy conditions; format: in vivo, Cyperus iria; conditions: rated 3-4 weeks after treatment
Summary of the method: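 Seeds or propagules sown in top 0.5 cm of silt loam soil, flooded 1.5 to 3 cm above surface throughout. Compound in 50/50 v/v aqueous/acetone pipetted into flood water at about 0.0313 to 0.500 kg/ha. Visual 0-9 rating versus control after three to four weeks in greenhouse.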

CYPSE (Flatsedge) [7] = experiment: as above; format: in vivo, Cyperus serotinus; conditions: rated 3-4 weeks after treatment
Summary of the method: (§3)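 Greenhouse paddy assay. Acetone/water (50/50 v/v) solutions dosed into flood water, equivalent to about 0.0313 to 0.500 kg/ha active ingredient, over seeds planted 0.5 cm deep in silt loam. Score: 0-9 visual, based on stand, vigor, malformation, size and chlorosis, 3 to 4 weeks after treatment.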

[8] = tested on: SAGPY (Arrowhead (Pygmaea)); experiment: as above; format: in vivo, Sagittaria pygmaea; conditions: rated 3-4 weeks after treatment
Summary of the method: as §3

CYPSE (Flatsedge) [9] = experiment: Postemergence weed control under flooded paddy conditions; format: in vivo, Cyperus serotinus; conditions: postemergence weeds, rated 3 to 4 weeks after treatment
Summary of the method: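 With weeds 3 to 5 cm tall and rice at the 1.5 to 2.5 leaf stage, containers were flooded and water held 1.5 to 3 cm above soil. Compounds in 50/50 v/v aqueous/acetone went into the flood water at about 0.0313 to 0.500 kg/ha a.i. Effects were visually rated 0–9 against controls after three to four weeks in the greenhouse.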

How did the AMBEL herbicidal rating (AMBEL (Ragweed, Common); rate 0.0156 kg/ha) turn out when `C=CCN1C(=O)C(CC(=O)NC)SC1=Nc1cc(-n2c(=O)cc(C(F)(F)F)n(C)c2=O)c(F)cc1Cl` (stereo not drawn) [Compound 84, 3-Allyl-2-{{2-chloro-5-[3,6-dihydro-3-methyl-2,6-dioxo-4-(trifluoromethyl)-1(2H)-pyrimidinyl]-4-fluorophenyl}imino}-N-methyl-4-oxo-5-thiazolidineacetamide] was run?
The AMBEL herbicidal rating was 4.0.

And the AMBEL herbicidal rating (AMBEL (Ragweed, Common); rate 0.0313 kg/ha)?
The AMBEL herbicidal rating was 9.0.

What about the AMBEL herbicidal rating (AMBEL (Ragweed, Common); rate 0.0625 kg/ha) of the same molecule?
Its AMBEL herbicidal rating is 9.0.

What about the AMBEL herbicidal rating (AMBEL (Ragweed, Common); rate 0.1250 kg/ha) of the same molecule?
The AMBEL herbicidal rating was 9.0.

And the CASOB herbicidal rating (CASOB (Sicklepod) [1]; rate 0.0156 kg/ha)?
Its CASOB herbicidal rating is 0.0.

And the CASOB herbicidal rating (CASOB (Sicklepod) [1]; rate 0.0313 kg/ha)?
Its CASOB herbicidal rating is 0.0.

What about the CASOB herbicidal rating (CASOB (Sicklepod) [1]; rate 0.0625 kg/ha) of the same molecule?
The CASOB herbicidal rating was 0.0.

What about the CASOB herbicidal rating (CASOB (Sicklepod) [1]; rate 0.1250 kg/ha) of the same molecule?
The CASOB herbicidal rating was 3.0.

What about the CHEAL herbicidal rating ([2]; rate 0.0156 kg/ha) of the same molecule?
The CHEAL herbicidal rating was 6.0.

What about the CHEAL herbicidal rating ([2]; rate 0.0313 kg/ha) of the same molecule?
The CHEAL herbicidal rating was 7.0.

What about the CHEAL herbicidal rating ([2]; rate 0.0625 kg/ha) of the same molecule?
Its CHEAL herbicidal rating is 9.0.

And the CHEAL herbicidal rating ([2]; rate 0.1250 kg/ha)?
The CHEAL herbicidal rating was 9.0.

And the GALAP herbicidal rating (GALAP (Galium) [3]; rate 0.0156 kg/ha)?
Its GALAP herbicidal rating is 1.0.

What about the GALAP herbicidal rating (GALAP (Galium) [3]; rate 0.0313 kg/ha) of the same molecule?
The GALAP herbicidal rating was 2.0.

And the GALAP herbicidal rating (GALAP (Galium) [3]; rate 0.0625 kg/ha)?
The GALAP herbicidal rating was 4.0.

What about the GALAP herbicidal rating (GALAP (Galium) [3]; rate 0.1250 kg/ha) of the same molecule?
The GALAP herbicidal rating was 7.0.

And the ECHCG herbicidal rating (ECHCG (Barnyardgrass); rate 0.0156 kg/ha)?
The ECHCG herbicidal rating was 0.0.

And the ECHCG herbicidal rating (ECHCG (Barnyardgrass); rate 0.0313 kg/ha)?
The ECHCG herbicidal rating was 0.0.

And the ECHCG herbicidal rating (ECHCG (Barnyardgrass); rate 0.0625 kg/ha)?
Its ECHCG herbicidal rating is 0.0.

And the ECHCG herbicidal rating (ECHCG (Barnyardgrass); rate 0.1250 kg/ha)?
Its ECHCG herbicidal rating is 0.0.

What about the SETVI herbicidal rating (SETVI (Foxtail, Green); rate 0.0156 kg/ha) of the same molecule?
The SETVI herbicidal rating was 0.0.

What about the SETVI herbicidal rating (SETVI (Foxtail, Green); rate 0.0313 kg/ha) of the same molecule?
The SETVI herbicidal rating was 0.0.

What about the SETVI herbicidal rating (SETVI (Foxtail, Green); rate 0.0625 kg/ha) of the same molecule?
The SETVI herbicidal rating was 0.0.

What about the SETVI herbicidal rating (SETVI (Foxtail, Green); rate 0.1250 kg/ha) of the same molecule?
The SETVI herbicidal rating was 2.0.

What about the GLXMAW herbicidal rating ([4]; rate 0.0156 kg/ha) of the same molecule?
Its GLXMAW herbicidal rating is 4.0.

And the GLXMAW herbicidal rating ([4]; rate 0.0313 kg/ha)?
Its GLXMAW herbicidal rating is 4.5.

What about the GLXMAW herbicidal rating ([4]; rate 0.0625 kg/ha) of the same molecule?
Its GLXMAW herbicidal rating is 4.5.

And the GLXMAW herbicidal rating ([4]; rate 0.1250 kg/ha)?
Its GLXMAW herbicidal rating is 8.5.

And the ORYSAT herbicidal rating (ORYSAT (Rice, Tebonnet); rate 0.0156 kg/ha)?
Its ORYSAT herbicidal rating is 0.5.

And the ORYSAT herbicidal rating (ORYSAT (Rice, Tebonnet); rate 0.0313 kg/ha)?
The ORYSAT herbicidal rating was 1.0.

What about the ORYSAT herbicidal rating (ORYSAT (Rice, Tebonnet); rate 0.0625 kg/ha) of the same molecule?
Its ORYSAT herbicidal rating is 1.5.

What about the ORYSAT herbicidal rating (ORYSAT (Rice, Tebonnet); rate 0.1250 kg/ha) of the same molecule?
Its ORYSAT herbicidal rating is 3.0.

What about the CASOB rating (CASOB (Sicklepod) [5]; 0.0156 kg/ha) of the same molecule?
The CASOB rating was 0.0.

And the CASOB rating (CASOB (Sicklepod) [5]; 0.0313 kg/ha)?
Its CASOB rating is 0.0.

And the CASOB rating (CASOB (Sicklepod) [5]; 0.0625 kg/ha)?
The CASOB rating was 0.0.

What about the CASOB rating (CASOB (Sicklepod) [5]; 0.1250 kg/ha) of the same molecule?
Its CASOB rating is 0.0.

What about the CASOB rating (CASOB (Sicklepod) [5]; 0.2500 kg/ha) of the same molecule?
The CASOB rating was 0.0.

What about the CASOB rating (CASOB (Sicklepod) [5]; 0.5000 kg/ha) of the same molecule?
Its CASOB rating is 9.0.

What about the GALAP rating (GALAP (Galium) [6]; 0.0156 kg/ha) of the same molecule?
Its GALAP rating is 0.0.

What about the GALAP rating (GALAP (Galium) [6]; 0.0313 kg/ha) of the same molecule?
Its GALAP rating is 0.0.

And the GALAP rating (GALAP (Galium) [6]; 0.0625 kg/ha)?
Its GALAP rating is 0.0.

And the GALAP rating (GALAP (Galium) [6]; 0.1250 kg/ha)?
The GALAP rating was 0.0.

What about the GALAP rating (GALAP (Galium) [6]; 0.2500 kg/ha) of the same molecule?
The GALAP rating was 5.0.

And the GALAP rating (GALAP (Galium) [6]; 0.5000 kg/ha)?
Its GALAP rating is 5.0.

What about the ZEAMX rating (ZEAMX (Corn, Field); 0.0156 kg/ha) of the same molecule?
Its ZEAMX rating is 0.0.

What about the ZEAMX rating (ZEAMX (Corn, Field); 0.0313 kg/ha) of the same molecule?
The ZEAMX rating was 0.0.

And the ZEAMX rating (ZEAMX (Corn, Field); 0.0625 kg/ha)?
Its ZEAMX rating is 0.0.

What about the ZEAMX rating (ZEAMX (Corn, Field); 0.1250 kg/ha) of the same molecule?
Its ZEAMX rating is 5.0.

What about the ZEAMX rating (ZEAMX (Corn, Field); 0.2500 kg/ha) of the same molecule?
The ZEAMX rating was 8.0.

And the ZEAMX rating (ZEAMX (Corn, Field); 0.5000 kg/ha)?
The ZEAMX rating was 9.0.

And the “CYPIR herbicidal effect rating” value (CYPIR (Rice Flatsedge); 0.0313 kg/ha)?
The value was 3.0.

And the “CYPIR herbicidal effect rating” value (CYPIR (Rice Flatsedge); 0.0625 kg/ha)?
Its value is 7.0.

And the “CYPIR herbicidal effect rating” value (CYPIR (Rice Flatsedge); 0.1250 kg/ha)?
The value was 9.0.

And the “CYPIR herbicidal effect rating” value (CYPIR (Rice Flatsedge); 0.2500 kg/ha)?
The value was 9.0.

What about the “CYPSE herbicidal effect rating” value (CYPSE (Flatsedge) [7]; 0.0313 kg/ha) of the same molecule?
The value was 0.0.

And the “CYPSE herbicidal effect rating” value (CYPSE (Flatsedge) [7]; 0.0625 kg/ha)?
The value was 3.0.

What about the “CYPSE herbicidal effect rating” value (CYPSE (Flatsedge) [7]; 0.1250 kg/ha) of the same molecule?
The value was 9.0.

And the “CYPSE herbicidal effect rating” value (CYPSE (Flatsedge) [7]; 0.2500 kg/ha)?
The value was 9.0.

And the “SAGPY herbicidal effect rating” value ([8]; 0.0313 kg/ha)?
Its value is 2.0.

And the “SAGPY herbicidal effect rating” value ([8]; 0.0625 kg/ha)?
The value was 6.0.

And the “SAGPY herbicidal effect rating” value ([8]; 0.1250 kg/ha)?
Its value is 7.0.

And the “SAGPY herbicidal effect rating” value ([8]; 0.2500 kg/ha)?
Its value is 9.0.

And the “Herbicidal rating CYPSE” value (CYPSE (Flatsedge) [9]; Rate 0.0313 kg/ha)?
Its value is 0.0.

What about the “Herbicidal rating CYPSE” value (CYPSE (Flatsedge) [9]; Rate 0.0625 kg/ha) of the same molecule?
Its value is 3.0.

What about the “Herbicidal rating CYPSE” value (CYPSE (Flatsedge) [9]; Rate 0.1250 kg/ha) of the same molecule?
Its value is 9.0.

And the “Herbicidal rating CYPSE” value (CYPSE (Flatsedge) [9]; Rate 0.2500 kg/ha)?
Its value is 9.0.

Reference: patent publication US20020137929A1, “1 - (3-heterocyclylphenyl) isothiourea, -isourea, -guanidine and -amidine herbicidal agents” (Intellectual Property Department, BASF Aktiengesellschaft, priority 1998, published 2002)
